Experiments:
[1] = test system: SCC-15 head and neck cancer xenograft; experiment: SCC-15 xenograft tumor growth; assay type: in vivo, mouse; conditions: SCC-15, SCID mice; biologics 12 mg/kg IP Q7D×6; carboplatin 50 mg/kg IP Q4D×4 (FIG. 21E)
Description: Radiation is a commonly used cytotoxic therapy in oncology. […] SCC-15 head and neck cancer cells (1 million) were implanted subcutaneously into SCID mice, and mice were randomized when the tumors reached ˜200 mm^3 and dosed with biologics at 12 mg/kg intraperitoneally on a Q4D×6 (one dose given every 4 days for a total of 6 doses), while the radiation was directed at the tumor with a single radiation dose of 15 Gy on day 0.
SCC-15 head and neck cancer cells (1 million) were implanted subcutaneously into SCID mice, and mice were randomized when the tumors reached ˜200 mm^3 and dosed with biologics at 12 mg/kg intraperitoneally on a Q7D×6 (one dose given every 7 days for a total of 6 doses), while carboplatin was dosed intraperitoneally […] at 50 mg/kg Q4D×4 (one dose given every 4 days for a total of 4 doses).

[2] = test system: NCI-H1650 (NSCLC) xenograft; experiment: NCI-H1650 xenograft tumor growth; assay type: in vivo, mouse; conditions: NCI-H1650, SCID/Beige mice; for TGD, single agent / TGImax, single agent: biologics 6 or 12 mg/kg IP Q4D×6, erlotinib 100 mg/kg orally daily ×10, carboplatin 50 mg/kg IP Q4D×4 (FIG. 20A, 22A)
Description: The potency of anti-huLRRC15 ADCs as compared to current standards of care was assessed in xenograft models with NCI-H1650 ([…]), HN5 (head and neck), EBC-1 (squamous NSCLC), NW231 (breast) and PANC1 (pancreatic) cancer cells. […] For FIG. 20A, NCI-H1650 cells (5 million cells) were implanted subcutaneously into SCID/Beige mice and tumors were randomized when they reached ˜200 mm^3 and dosed with biologics at 6 or 12 mg/kg intraperitoneally on a Q4D×6 (one dose given every 4 days for a total of 6 doses), while erlotinib was dosed orally daily for 10 days at 100 mg/kg, and carboplatin was dosed intraperitoneally Q4D×4 (one dose given every 4 days for a total of 4 doses) at 50 mg/kg.
NCI-H1650 NSCLC cancer cells (5 million) were implanted subcutaneously into SCID/Beige mice, and mice were randomized when the tumors reached ˜200 mm^3 and dosed with biologics at 6 or 12 mg/kg intraperitoneally on a Q4D×6 (one dose given every 4 days for a total of 6 doses), while erlotinib was dosed orally daily at 100 mg/kg for 10 doses.
NCI-H1650 NSCLC cancer cells (5 million) were implanted subcutaneously into SCID/Beige mice, and mice were randomized when the tumors reached ˜200 mm^3 and dosed on day 0 with isotype or ADC at 0.1, 0.3, or 0.6 mg/kg intraperitoneally.
NCI-H1650 adeno NSCLC cells (5 million) were implanted subcutaneously into SCID/Beige mice, and mice were randomized when the tumors reached ˜225 mm^3 and dosed with ADC at 0.6 mg/kg or isotype antibody at 12 mg/kg intraperitoneally once on day 0.

[3] = test system: EBC-1 (human squamous NSCLC) xenograft; experiment: EBC-1 xenograft tumor growth; assay type: in vivo, mouse
Description: For the experiments, five million cells (EBC-1) that were grown in vitro were inoculated subcutaneously per mouse into the right flank of female SCID-Beige mice. Tumors were size matched at ˜200 mm^3, and dosed intraperitoneally (IP) Q4D×6 (1 dose given every 4 days for a total of 6 doses) as shown in FIG. 13A. Measurements of the length (L) and width (W) of the tumors were taken via electronic caliper and the volume was calculated according to the following equation: V=L×W^2/2.
For this experiment, tumors were size matched at ˜200 mm^3, and dosed intraperitoneally (IP) Q7D×2 (1 dose given every 7 days for a total of 2 doses) as shown in FIG. 13C. […]
5 million cells were implanted subcutaneously into SCID/Beige mice, and mice were randomized when tumor group mean volumes reached ˜200 mm^3.
In FIG. 20C, EBC1 cells (5 million) were implanted subcutaneously into SCID/Beige mice and mice were randomized when the tumors reached ˜200 mm^3 and dosed with biologics at 6 mg/kg intraperitoneally on a Q7D×2 (one dose given every 7 days for a total of 2 doses), while erlotinib was dosed orally daily for 10 days at 50 mg/kg, and carboplatin was dosed intraperitoneally Q4D×3 (one dose given every 4 days for a total of 3 doses) at 50 mg/kg.
In FIG. 21B, EBC-1 squamous NSCLC cells (5 million) were implanted subcutaneously into SCID/Beige mice, and mice were randomized when the tumors reached ˜200 mm^3 and dosed with biologics at 6 mg/kg intraperitoneally on a Q7D×2 (one dose given every 7 days for a total of 2 doses), while gemcitabine was dosed intraperitoneally at 100 mg/kg (Q3D×3) (one dose given every three days for 3 doses total).

[4] = test system: EBC-1 (human squamous NSCLC) xenograft; experiment: EBC-1 xenograft tumor growth; assay type: in vivo, mouse; conditions: EBC-1, SCID/Beige mice; huM25-vcMMAE-E2 at 3 mg/kg (method: biologics 6 mg/kg IP Q7D×2); method: gemcitabine 100 mg/kg IP Q3D×3, result sentence names docetaxel (FIG. 21B)
[5] = test system: NW231 breast cancer xenograft; experiment: NW231 xenograft tumor growth; assay type: in vivo, mouse; conditions: NW231, SCID mice; biologics 12 mg/kg IP Q4D×6; doxorubicin 1 mg/kg IV days 0, 4, 8, 13, 18 (FIG. 20D)
Description: In FIG. 20D, NW231 breast cancer cells (10 million) were implanted subcutaneously into SCID mice, and mice were randomized when the tumors reached ˜150 mm^3 and dosed with biologics at 12 mg/kg intraperitoneally on a Q4D×6 (one dose given every 4 days for a total of 6 doses), while doxorubicin was dosed intravenously at 1 mg/kg on days 0, 4, 8, 13 and 18.

[6] = test system: HN5 (head and neck) xenograft; experiment: HN5 xenograft tumor growth; assay type: in vivo, mouse; conditions: HN5, NSG mice; ADC 4.5 mg/kg IP Q4D×6; erlotinib 150 mg/kg orally daily ×10; cetuximab 3 mg/kg IP Q7D×3 (FIG. 20B)
[7] = test system: HPAF-II (human pancreatic) xenograft; experiment: HPAF-II xenograft tumor growth; assay type: in vivo, mouse; conditions: SCID mice, biologics 6 mg/kg IP Q4D×6, gemcitabine 100 mg/kg IP (Q3D×4)×2 (FIG. 21A)
Description: For the experiment, 1 million cells (HPAF-II) that were grown in vitro were inoculated subcutaneously per mouse into the right flank of female SCID-Beige mice. Tumors were size matched at ˜200 mm^3, and dosed intraperitoneally (IP) Q4D×6 (1 dose given every 4 days for a total of 6 doses) as shown in FIG. 13B.
In FIG. 21A, HPAF-II pancreatic cancer cells (1 million) were implanted subcutaneously into SCID mice, and mice were randomized when the tumors reached ˜200 mm^3 and dosed with biologics at 6 mg/kg intraperitoneally on a Q4D×6 (one dose given every 4 days for a total of 6 doses), while gemcitabine was dosed intraperitoneally at 100 mg/kg (Q3D×4)×2 (one dose given every three days for 4 doses per cycle, 2 cycles with 8 total doses given).

[8] = test system: PANC1 (pancreatic) xenograft; experiment: PANC1 xenograft tumor growth; assay type: in vivo, mouse; conditions: PANC1, SCID mice; biologics 12 mg/kg IP Q4D×6; gemcitabine 100 mg/kg IP Q3D×4 (FIG. 20E)
Description: In FIG. 20E, PANC1 pancreatic cancer cells (10 million) were implanted subcutaneously into SCID mice, and mice were randomized when the tumors reached ˜125 mm^3 and dosed with biologics at 12 mg/kg intraperitoneally on a Q4D×6 (one dose given every 4 days for a total of 6 doses), while gemcitabine was dosed intraperitoneally at 100 mg/kg Q3D×4) (one dose given every three days for 4 doses total).

human BM-MSC (Lonza) = experiment: In vitro cell killing of human mesenchymal stem cells with TGFβ; assay type: cell-based; conditions: human BM-MSC (Lonza) treated with 10 ng/mL TGFβ (FIG. 23B)
huLRRC15 = biological target: T1, huLRRC15 (Homo sapiens, UniProt Q8TF66); experiment: Flow cytometry competition assay against labeled muM25 (muM25-AF488) on U118MG cells; assay type: binding; conditions: 1 μg/mL muM25-AF488, unlabeled test antibody 0.0001-100 μg/mL
T1 construct: endogenous in cells; host or cells: U118MG glioblastoma cells
T1 sequence (Q8TF66 22-581): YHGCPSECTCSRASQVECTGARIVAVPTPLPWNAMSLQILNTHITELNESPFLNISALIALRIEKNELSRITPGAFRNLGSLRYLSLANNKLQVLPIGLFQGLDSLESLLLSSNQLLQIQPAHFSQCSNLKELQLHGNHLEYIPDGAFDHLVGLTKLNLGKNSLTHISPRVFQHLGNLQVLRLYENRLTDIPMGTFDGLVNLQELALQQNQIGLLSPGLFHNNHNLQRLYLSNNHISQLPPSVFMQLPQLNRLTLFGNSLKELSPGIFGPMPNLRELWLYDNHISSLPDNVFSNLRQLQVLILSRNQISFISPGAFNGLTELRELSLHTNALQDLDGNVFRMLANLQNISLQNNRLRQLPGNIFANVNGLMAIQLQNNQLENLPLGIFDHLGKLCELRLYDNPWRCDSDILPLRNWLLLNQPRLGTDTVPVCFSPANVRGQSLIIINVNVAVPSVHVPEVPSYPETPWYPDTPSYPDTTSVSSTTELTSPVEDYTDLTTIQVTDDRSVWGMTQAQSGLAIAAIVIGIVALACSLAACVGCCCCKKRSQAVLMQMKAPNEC
Description: Isotype control antibodies (human or mouse) were used as negative controls, and unlabeled muM25 was used as a positive control.
In this assay, competition due to a test antibody binding to the same or a proximal epitope as the labeled reference antibody reduce binding of the reference labeled antibody.

[9] = EBC1, SCID/Beige mice, biologics 6 mg/kg IP Q7D×2, erlotinib 50 mg/kg orally daily ×10, carboplatin 50 mg/kg IP Q4D×3 (FIG. 20C)
[10] = EBC-1, SCID/Beige mice, biologics 3 or 6 mg/kg IP Q4D×6, method: docetaxel 7.5 mg/kg IV, result sentence names gemcitabine (FIG. 21C)
[11] = 0.6 mg/kg IP once on day 0 (FIG. 24G)
[12] = EBC-1, SCID mice, 0.6 mg/kg Q7D×2 (FIG. 24H)

Molecule: N.N.O=C([O-])C1(C(=O)[O-])CCC1.[Pt+2] [carboplatin, reference compound]
- TGD, single agent [1]: 33%
- TGImax, single agent [1]: 56%
- TGD, single agent [2]: 77%
- TGImax, single agent [2]: 56%
- TGD [3, 9]: 43%
- TGImax [3, 9]: 39%

Molecule: CC(=O)O[C@@]12CO[C@@H]1C[C@H](O)[C@@]1(C)C(=O)[C@H](O)C3=C(C)[C@@H](OC(=O)[C@H](O)[C@@H](NC(=O)OC(C)(C)C)c4ccccc4)C[C@@](O)([C@@H](OC(=O)c4ccccc4)[C@H]21)C3(C)C [docetaxel, reference compound]
- TGImax, single agent [4]: 77%
- TGD, single agent ([3]; EBC-1, SCID/Beige mice, huM25-vcMMAE-E2 at 3 mg/kg (method: biologics 6 mg/kg IP Q7D×2), method: gemcitabine 100 mg/kg IP Q3D×3, result sentence names docetaxel (FIG. 21B)): 48%

Molecule: COc1cccc2c1C(=O)c1c(O)c3c(c(O)c1C2=O)C[C@@](O)(C(=O)CO)C[C@@H]3O[C@H]1C[C@H](N)[C@H](O)[C@H](C)O1 [doxorubicin, reference compound]
- TGImax [5]: 65%

Molecule: C#Cc1cccc(Nc2ncnc3cc(OCCOC)c(OCCOC)cc23)c1 [erlotinib, reference compound]
- TGD [6]: 12%
- TGImax [6]: 23%
- TGD, single agent [2]: 77%
- TGImax, single agent [2]: 90%
- TGD [3, 9]: 14%
- TGImax [3, 9]: 27%

Molecule: Nc1ccn([C@@H]2O[C@H](CO)[C@@H](O)C2(F)F)c(=O)n1 [gemcitabine, reference compound]
- TGD, single agent [7]: 117%
- TGImax, single agent [7]: 73%
- TGImax [8]: 55%
- TGD, single agent [3, 10]: 171%
- TGImax, single agent [3, 10]: 95%

B1: huAD208.4.1-PBD-DAR2: PBD synthon vaPBD conjugated with anti-huLRRC15 antibody huAD208.4.1 to yield a DAR of 2 (conjugate)
VH: EVQLVQSGAEVKKPGSSVKVSCKASGFTFTDYYIHWVKQAPGQGLEWIGLVYPYIGGTNYNQKFKGKATLTVDTSTTTAYMEMSSLRSEDTAVYYCARGDNKYDAMDYWGQGTTVTVSS
VL: DIVLTQSPDSLAVSLGERATINCRASQSVSTSSYSYMHWYQQKPGQPPKLLIKYASSLESGVPDRFSGSGSGTDFTLTISSLQAEDVAVYYCEQSWEIRTFGGGTKVEIK
- cell killing effect relative to isotype-PBD-DAR2 at the same doses (human BM-MSC (Lonza)): higher cell killing effect
- TGD [2, 11]: > 388%
- TGImax [2, 11]: 95%
- TGD [3, 12]: > 600%
- TGImax [3, 12]: 91%

B2: muAD209.9.1: murine anti-huLRRC15 antibody; VH SEQ ID NO:76, VL SEQ ID NO:77 (antibody, V domains shown)
VH: QIQLVQSGPELKKPGETVKISCKASGFAITNFGMNWVKQAPGKGLKWMGWINLYTGEPTFADDFKGRFAFSLETSASTAYLQINNLKNEDTVIYFCARKGETYYRYDGFAYWGQGTLVTVSA
VL: DIVMTQAAPSVPVTPGESVSISCRSSKSLLHSNGNTHLYWFLQRPGQSPQLLIYRMSNLASGVPDRFSGSGSGTAFTLRISRVEAEDVGVYYCMQLLEYPYTFGGGTKLEIE
- competition with labeled muM25 for binding cells expressing huLRRC15 (huLRRC15): do not inhibit

— US11045480B2, “Anti-huLRRC15 antibody drug conjugates and methods for their use” (AbbVie Inc., priority 2015, dated 2021)
